Source: ChEMBL document CHEMBL1201862, “PubChem BioAssay data set” (2004)
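Grown in 96-well plates, cells were treated for 48 hours with each compound at five concentrations. Insufficient inhibition: endpoint recorded as highest concentration tested. GI50 is the concentration that inhibits growth by half.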 Calls of active or inactive are those of the source. Cut-off read from the data, not from the text of the source: active = GI50 up to about 1.1 µM and inactive = higher.

Tests used:
Assay in all cases: NCI-60 cell line screen, 48 h
OVCAR-4 = system: OVCAR-4
SF-268 = system: SF-268
NCI-H226 = system: NCI-H226
Malme-3M = system: Malme-3M
DMS-273 = system: DMS-273
SF-295 = system: SF-295
SF-539 = system: SF-539
OVCAR-8 = system: OVCAR-8
HOP-92 = system: HOP-92
MDA-MB-435 = system: MDA-MB-435
DU-145 = system: DU-145
MDA-MB-231 = system: MDA-MB-231
BT-549 = system: BT-549
NCI-H460 = system: NCI-H460
A498 = system: A498
T47D = system: T47D
HOP-18 = system: HOP-18
XF498 = system: XF498
DMS-114 = system: DMS-114
SNB-78 = system: SNB-78

Measured: GI50

Cc1ccc(NC(=O)CC(=O)n2nc(-c3ccccc3)c(/N=N/c3ccccc3C(=O)O)c2-c2ccccc2)cc1
inactive: OVCAR-4 > 100 µM | SF-268 > 100 µM | NCI-H226 > 100 µM | Malme-3M > 100 µM | DMS-273 > 100 µM | SF-295 > 100 µM | SF-539 > 100 µM | OVCAR-8 > 100 µM | HOP-92 > 100 µM

O=c1cnn(C/C=C/CP(=O)(O)O)c(=O)[nH]1
inactive: MDA-MB-435 > 100 µM | DU-145 > 100 µM | MDA-MB-231 > 100 µM | BT-549 > 100 µM | NCI-H460 > 100 µM | SF-268 > 100 µM | NCI-H226 > 100 µM | A498 > 100 µM | T47D > 100 µM | Malme-3M > 100 µM | SF-539 > 100 µM | OVCAR-8 > 100 µM | HOP-92 > 100 µM

CCOC(=O)C(C)OC(=O)c1ccc(C)cc1 (stereo not drawn)
inactive: NCI-H460 > 100 µM | SF-268 > 100 µM | HOP-18 > 100 µM | XF498 84.3 µM | DMS-114 > 100 µM | SNB-78 > 100 µM | A498 > 100 µM | Malme-3M > 100 µM | DMS-273 > 100 µM | SF-295 > 10 µM | SF-539 > 100 µM | OVCAR-8 > 100 µM | HOP-92 > 100 µM

Cc1cccc2sc(-c3ccc(O)cc3)nc12
inactive: MDA-MB-435 11 µM | OVCAR-4 16 µM | DU-145 17.8 µM | MDA-MB-231 19.8 µM | BT-549 11.8 µM | NCI-H460 18.1 µM | SF-268 16.6 µM | NCI-H226 14.8 µM | A498 3.15 µM | Malme-3M 16.9 µM | SF-295 14.6 µM | SF-539 21.5 µM | OVCAR-8 16.7 µM

O=C(O)CC/C(=N\Nc1nsc2ccccc12)c1ccccc1
inactive: OVCAR-4 58.5 µM | NCI-H460 33.6 µM | SF-268 39.4 µM | HOP-18 > 100 µM | DMS-114 25.5 µM | SNB-78 47.8 µM | DMS-273 24.7 µM | SF-539 > 100 µM | OVCAR-8 66.7 µM | HOP-92 51.3 µM
